Measured values as given in US11802120B2, “Fused cyclic urea derivatives as CRHR2 antagonist” (RaQualia Pharma Inc., priority 2018, dated 2023).

Target: T1, human CRHR2-alpha (Homo sapiens, UniProt Q13324)
T1 sequence (Q13324 1-411): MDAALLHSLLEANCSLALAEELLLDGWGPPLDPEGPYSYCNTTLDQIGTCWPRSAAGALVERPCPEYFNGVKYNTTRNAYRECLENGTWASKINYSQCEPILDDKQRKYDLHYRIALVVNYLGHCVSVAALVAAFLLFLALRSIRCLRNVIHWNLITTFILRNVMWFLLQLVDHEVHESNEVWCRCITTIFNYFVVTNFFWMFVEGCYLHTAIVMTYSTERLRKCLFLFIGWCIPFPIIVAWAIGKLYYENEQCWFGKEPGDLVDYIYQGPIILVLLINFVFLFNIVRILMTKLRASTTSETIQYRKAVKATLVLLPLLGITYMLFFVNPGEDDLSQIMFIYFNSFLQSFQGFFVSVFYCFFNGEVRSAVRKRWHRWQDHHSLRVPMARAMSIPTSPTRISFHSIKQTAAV
Test: cAMP functional assay for human CRHR2 (LANCE Ultra cAMP, TR-FRET)
Assay type: cell-based
Conditions: CHO-K1 cells expressing human CRHR2-alpha, agonist human urocortin2 at EC80, cAMP; read-out: IC50 against CRHR2
In short: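 IC50 values derive from percent inhibition of EC80 agonist-stimulated cAMP in CHO-K1 transfectants, with 0.5 mM IBMX present; the CRHR2 line was stimulated by human urocortin2 and the CRHR1 line by CRF.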

SMILES	IC50
CNC(=O)c1ccc(-n2c(=O)n(C[C@H]3CC[C@H](NC(=O)c4cc(Cl)cnc4C(F)F)CC3)c3cc(C)ccc32)cn1 [Example 529, 5-(3-(((1r,4r)-4-(5-chloro-2-(difluoromethyl)nicotinamido)cyclohexyl)methyl)-5-methyl-2-oxo-2,3-dihydro-1H-benzo [d]imidazol-1-yl)-N-methylpicolinamide]	< 300 nM
Cc1ncc(Cl)cc1C(=O)N[C@H]1CC[C@H](Cn2c(=O)n(-c3cnc4c(c3)OCCN4)c3ccccc32)CC1 [Example 159, 5-chloro-N-((1r,4r)-4-((3-(3,4-dihydro-2H-pyrido[3,2-b][1,4]oxazin-7-yl)-2-oxo-2,3-dihydro-1H-benzo[d]imidazol-1-yl)methyl)cyclohexyl)-2-methylnicotinamide]	< 300 nM
O=C(N[C@H]1CC[C@H](Cn2c(=O)n(-c3ccc4ccncc4c3)c3ccccc32)CC1)c1cc(Cl)cnc1C(F)F [Example 423, 5-chloro-2-(difluoromethyl)-N-((1r,4r)-4-((3-(isoquinolin-7-yl)-2-oxo-2,3-dihydro-1H-benzo[d]imidazol-1-yl)methyl)cyclohexyl)nicotinamide]	< 300 nM
Cc1ncc(Cl)cc1C(=O)N[C@H]1CC[C@H](Cn2c(=O)n(-c3ccccc3[N+](=O)[O-])c3ccccc32)CC1 [Example 233, 5-chloro-2-methyl-N-((1r,4r)-4-((3-(2-nitrophenyl)-2-oxo-2,3-dihydro-1H-benzo[d]imidazol-1-yl)methyl)cyclo-hexyl)nicotinamide]	< 300 nM
Cc1c[nH]c2ncc(-n3c(=O)n(C[C@H]4CC[C@H](NC(=O)c5cc(Cl)cnc5C(F)(F)F)CC4)c4ccccc43)cc12 [Example 425, 5-chloro-N-((1r,4r)-4-((3-(3-methyl-1H-pyrrolo[2,3-b]pyridin-5-yl)-2-oxo-2,3-dihydro-1H-benzo[d]imidazol-1-yl)methyl)cyclo-hexyl)-2-(trifluoromethyl) nicotinamide]	< 300 nM
COc1ccc(-n2c(=O)n(C[C@H]3CC[C@H](NC(=O)c4cc(Br)cnc4C)CC3)c3ccccc32)cn1 [Example 227, 5-bromo-N-((1r,4r)-4-((3-(6-methoxypyridin-3-yl)-2-oxo-2,3-dihydro-1H-benzo[d]imidazol-1-yl)methyl)cyclo-hexyl)-2-methylnicotinamide]	< 300 nM
CNC(=O)c1ccc(-n2c(=O)n(C[C@H]3CC[C@H](NC(=O)c4cc(Cl)cnc4C(F)(F)F)CC3)c3cc(F)ccc32)cn1 [Example 290, 5-(3-(((1r,4r)-4-(5-chloro-2-(trifluoromethyl)nico-tinamido)cyclohexyl)methyl)-5-fluoro-2-oxo-2,3-dihydro-1H-benzo[d]imidazol-1-yl)-N-methyl-picolinamide]	< 300 nM
CNc1ncc(-n2c(=O)n(C[C@H]3CC[C@H](NC(=O)c4cc(Cl)cnc4C(F)F)CC3)c3ccccc32)cc1C [Example 462, 5-chloro-2-(difluoromethyl)-N-((1r,4r)-4-((3-(5-methyl-6-(methylamino)pyridin-3-yl)-2-oxo-2,3-dihydro-1H-benzo [d]imidazol-1-yl)methyl)cyclo-hexyl)nicotinamide]	< 300 nM
O=C(N[C@H]1CC[C@H](Cn2c(=O)n(-c3ccc(N[C@@H]4CCOC4)nc3)c3ccccc32)CC1)c1cc(Cl)cnc1C(F)F [Example 379, 5-chloro-2-(difluoromethyl)-N-((1R,4r)-4-((2-oxo-3-(6-(((R)-tetrahydrofuran-3-yl)amino)pyridin-3-yl)-2,3-dihydro-1H-benzo[d]imidazol-1-yl)methyl)cyclohexyl) nicotinamide]	< 300 nM
O=C(N[C@H]1CC[C@H](Cn2c(=O)n(Cc3ccccn3)c3ccccc32)CC1)c1cc(Cl)ccc1C(F)(F)F [Example 283, 5-chloro-N-((1r,4r)-4-((2-oxo-3-(pyridin-2-ylmethyl)-2,3-dihydro-1H-benzo[d]imidazol-1-yl)methyl)cyclohexyl)-2-(trifluoromethyl)benzamide]	< 300 nM
Cc1ncc(Cl)cc1C(=O)N[C@H]1CC[C@H](Cn2c(=O)n(-c3ccc4cnccc4c3)c3ccccc32)CC1 [Example 371, 5-chloro-N-((1r,4r)-4-((3-(isoquinolin-6-yl)-2-oxo-2,3-dihydro-1H-benzo[d]imidazol-1-yl)methyl)cyclo-hexyl)-2-methylnicotinamide]	< 300 nM
Cc1ncc(Cl)cc1C(=O)N[C@H]1CC[C@H](Cn2c(=O)n(-c3ccc4c(c3)nc(C)n4C)c3ccccc32)CC1 [Example 168, 5-chloro-N-((1r,4r)-4-((1′,2′-dimethyl-2-oxo-1′H-[1,5′-bibenzo[d]imidazol]-3(2H)-yl)methyl)cyclohexyl)-2-methylnicotinamide]	< 300 nM
O=C(N[C@H]1CC[C@H](Cn2c(=O)n(-c3ccc(OCCO)nc3)c3ccc(F)cc32)CC1)c1cc(Cl)cnc1C(F)F [Example 712, 5-chloro-2-(difluoromethyl)-N-((1r,4r)-4-((6-fluoro-3-(6-(2-hydroxyethoxy)pyridin-3-yl)-2-oxo-2,3-dihydro-1H-benzo[d]imidazol-1-yl)methyl)cyclohexyl)nicotinamide]	< 300 nM
O=C(N[C@H]1CC[C@H](Cn2c(=O)n(-c3ccc(NC(=O)C4CC4)nc3)c3ccccc32)CC1)c1cc(Cl)cnc1C(F)F [Example 502, 5-chloro-N-((1r,4r)-4-((3-(6-(cyclopropanecarboxa-mido)pyridin-3-yl)-2-oxo-2,3-dihydro-1H-benzo[d]imidazol-1-yl)methyl)cyclohexyl)-2-(difluoro-methyl)nicotinamide]	< 300 nM
Cc1ncc(Cl)cc1C(=O)N[C@H]1CC[C@H](Cn2c(=O)n(-c3ccc4c(C)n[nH]c4c3)c3ccccc32)CC1 [Example 205, 5-chloro-2-methyl-N-((1r,4r)-4-((3-(3-methyl-1H-indazol-6-yl)-2-oxo-2,3-dihydro-1H-benzo[d]imidazol-1-yl)methyl)cyclohexyl)nicotinamide]	< 300 nM
Cc1ncc(Cl)cc1C(=O)N[C@H]1CC[C@H](Cn2c(=O)n(-c3ccc4oc(N)nc4c3)c3ccccc32)CC1 [Example 263, N-((1r,4r)-4-((3-(2-aminobenzo[d]oxazol-5-yl)-2-oxo-2,3-dihydro-1H-benzo[d]imidazol-1-yl)methyl)cyclohexyl)-5-chloro-2-methylnicotinamide]	< 300 nM
O=C(N[C@H]1CC[C@H](Cn2c(=O)n(Cc3ccncc3)c3ccccc32)CC1)c1cc(Cl)cnc1C(F)(F)F [Example 280, 5-chloro-N-((1r,4r)-4-((2-oxo-3-(pyridin-4-ylmethyl)-2,3-dihydro-1H-benzo[d]imidazol-1-yl)methyl)cyclohexyl)-2-(trifluoromethyl)nicotinamide]	< 300 nM
CNc1ncc(-n2c(=O)n(C[C@H]3CC[C@H](NC(=O)c4cc(Cl)cnc4C(F)(F)F)CC3)c3ccccc32)cc1C [Example 544, 5-chloro-N-((1r,4r)-4-((3-(5-methyl-6-(methylamino)pyridin-3-yl)-2-oxo-2,3-dihydro-1H-benzo[d]imidazol-1-yl)methyl)cyclo-hexyl)-2-(trifluoromethyl) nicotinamide]	< 300 nM
O=C(N[C@H]1CC[C@H](Cn2c(=O)n(-c3ccc4nccnc4c3)c3ccccc32)CC1)c1cc(Cl)cnc1C(F)F [Example 495, 5-chloro-2-(difluoromethyl)-N-((1r,4r)-4-((2-oxo-3-(quinoxalin-6-yl)-2,3-dihydro-1H-benzo[d]imidazol-1-yl)methyl)cyclo-hexyl)nicotinamide]	< 300 nM
Cc1ncc(Cl)cc1C(=O)N[C@H]1CC[C@H](Cn2c(=O)n(-c3ccc(NCc4cnn(C)c4)nc3)c3ccccc32)CC1 [Example 441, 5-chloro-2-methyl-N-((1r,4r)-4-((3-(6-(((1-methyl-1H-pyrazol-4-yl)methyl)amino)pyridin-3-yl)-2-oxo-2,3-dihydro-1H-benzo[d]imidazol-1-yl)methyl)cyclohexyl)nicotinamide]	< 300 nM
CC(=O)c1ccc(-n2c(=O)n(C[C@H]3CC[C@H](NC(=O)c4cc(Cl)cnc4C(F)F)CC3)c3cccnc32)cc1 [Example 400, N-((1r,4r)-4-((3-(4-acetylphenyl)-2-oxo-2,3-dihydro-1H-imidazo [4,5-b]pyridin-1-yl)methyl)cyclo-hexyl)-5-chloro-2-(difluoro-methyl)nicotinamide]	< 300 nM
CNc1cc(-n2c(=O)n(C[C@H]3CC[C@H](NC(=O)c4cc(Cl)cnc4C(F)(F)F)CC3)c3ccccc32)ccn1 [Example 665, 5-chloro-N-((1r,4r)-4-((3-(2-(methylamino)pyridin-4-yl)-2-oxo-2,3-dihydro-1H-benzo[d]imidazol-1-yl)methyl)cyclohexyl)-2-(trifluoromethyl)nicotinamide]	< 300 nM
Cc1cc(C)c(-n2c(=O)n(C[C@H]3CC[C@H](NC(=O)c4cc(Cl)cnc4C)CC3)c3ccccc32)cn1 [Example 330, 5-chloro-N-((1r,4r)-4-((3-(4,6-dimethylpyridin-3-yl)-2-oxo-2,3-dihydro-1H-benzo [d]imidazol-1-yl)methyl)cyclohexyl)-2-methylnico-tinamide]	< 300 nM
COc1cncc(-n2c(=O)n(C[C@H]3CC[C@H](NC(=O)c4cc(Cl)cnc4C(F)F)CC3)c3ccccc32)c1 [Example 683, 5-chloro-2-(difluoromethyl)-N-((1r,4r)-4-((3-(5-methoxy-pyridin-3-yl)-2-oxo-2,3-dihydro-1H-benzo[d]imidazol-1-yl)methyl)cyclohexyl) nicotinamide]	< 300 nM
